Assay results taken from patent publication US9593305B2, “Differentiation of pluripotent stem cells” (Janssen Biotech, Inc., priority 2008, dated 2017).

Test system: H1 human embryonic stem cells
Experiment: Compounds and growth factors with low dose activin A (Example 9, Table 9)
Assay type: cell-based
Experimental: Clusters of H1 human embryonic stem cells were grown on reduced growth factor […]™ (Invitrogen; Cat #356231)-coated tissue culture plastic. Cells were passaged using collagenase (Invitrogen; Cat #17104-019) treatment and gentle scraping, washed to remove residual enzyme, and plated with even dispersal at a ratio of 1:1 (surface area) on reduced growth factor […]™-coated 96-well black plates (Packard ViewPlates; PerkinElmer; Cat #6005182) using volumes of 100 μl/well. Cells were allowed to attach as clusters and then recover log phase growth over a 1 to 3 day period, feeding daily with MEF conditioned medium supplemented with 8 ng/ml bFGF (R&D Systems; Cat #233-FB). Plates were maintained at 37° C., 5% CO2 in a humidified box throughout the duration of assay.
Stocks of growth factors purchased from R&D Systems were EGF (Cat #236-EG), FGF4 (Cat #235-F4), PDGF-A (Cat #221-AA), PDGF-D (Cat #1159-SB), PDGF-A/B (Cat #222-AB), VEGF (Cat #293-VE), and GDF-8 (Cat #788-08). Activin A was purchased from PeproTech (Cat #). Muscimol was purchased from Tocris (Cat #0289). All growth factors were solubilized in PBS with 0.1% BSA (Sigma; Cat #A7888) and stored frozen at −80° C. Muscimol was solubilized in 100% DMSO (Sigma; Cat #D2650) and stored frozen at −80° C. The compounds were available as 5 mM stocks in 96-well plate format, solubilized in 100% DMSO and stored at −80° C. The compounds were further diluted to an intermediate concentration of 0.2 mM in 50 mM HEPES (Invitrogen; Cat #15630-080), 20% DMSO and stored at 4° C. All growth factors and inhibitors were prepared in a deep well, 96-well polypropylene plate, diluted to 5× intermediate stocks in DMEM:F12 base medium at the beginning of assay and stored at 4° C.
A secondary screening assay was conducted, testing in triplicate and feeding on alternate days over the four-day assay timeframe. Assays were initiated by aspirating culture medium from each well followed by three washes in PBS to remove residual growth factors and serum. Test volumes of 80 μl per well were added back containing DMEM:F12 base medium (Invitrogen; Cat #11330-032) supplemented with 0.625% FCS (HyClone; Cat #SH30070.03), 25 ng/ml Wnt3a (R&D Systems), 12.5 ng/ml activin A, and 3.125 μM compound plus 20 μl 5× stock of growth factor or small molecule to yield a final concentration of 0.5% FCS, 20 ng/ml Wnt3a, 10 ng/ml activin A, and 2.5 μM compound. All remaining growth factors were tested at a final assay concentration of 50 ng/ml (EGF, FGF4, PDGF-A, PDGF-A/B, VEGF), with the exception of GDF-8 used at 25 ng/ml. Final assay concentration of muscimol was 20 μM. Positive control wells (100 μl/well) contained the same base medium supplemented with 0.5% FCS, 20 ng/ml Wnt3a and 10 ng/ml (low dose) or 100 ng/ml (high dose) activin A. Negative control wells (100 μl/well) contained the same base medium with 0.5% FCS and 20 ng/ml Wnt3a, omitting activin A.
Positive control wells (100 μl/well) contained the same base medium supplemented with 2% FCS and 10 ng/ml or 100 ng/ml activin A, omitting Wnt3a. Negative control wells (100 μl/well) contained the same base medium with 2% FCS, omitting both activin A and Wnt3a.
At the conclusion of four-days of culture, assay plates were washed twice with PBS, fixed with 4% paraformaldehyde (Alexis Biochemical; Cat #ALX-350-011) at room temperature for 20 minutes, then washed three times with PBS and permeabilized with 0.5% Triton X-100 (Sigma; Cat #T8760-2) for 20 minutes at room temperature. Cells were washed again three times with PBS and blocked with 4% chicken serum (Invitrogen; Cat #16110082) in PBS for 30 minutes at room temperature. Primary antibody (goat anti-human SOX17; R&D Systems; cat #AF1924) was diluted 1:100 in 4% chicken serum and added to each well for one hour at room temperature. […]

[1] = 10 ng/ml AA + compound + EGF + FGF4 + PDGF-A + Muscimol + Wnt3a
[2] = 10 ng/ml AA + compound + EGF + FGF4 + PDGF-A + VEGF + PDGF-D + Muscimol + GDF8 + Wnt3a
[3] = 10 ng/ml AA + compound + EGF + FGF4 + PDGF-AB + VEGF + Wnt3a
[4] = 10 ng/ml AA + compound + EGF + FGF4 + PDGF-AB + Wnt3a
[5] = 10 ng/ml AA + compound + EGF + FGF4 + Wnt3a
[6] = 10 ng/ml AA + compound + EGF + Wnt3a
[7] = 10 ng/ml AA + compound + FGF4 + Wnt3a

Row | SMILES | Cell Number, % of positive control [1] | Cell Number, Average Total Cell Number [1] | Sox17 Expression, % of positive control [1] | Sox17 Expression, Average Total Intensity [1] | Cell Number, % of positive control [2] | Cell Number, Average Total Cell Number [2] | Sox17 Expression, % of positive control [2] | Sox17 Expression, Average Total Intensity [2] | Cell Number, % of positive control [3] | Cell Number, Average Total Cell Number [3] | Sox17 Expression, % of positive control [3] | Sox17 Expression, Average Total Intensity [3] | Cell Number, % of positive control [4] | Cell Number, Average Total Cell Number [4] | Sox17 Expression, % of positive control [4] | Sox17 Expression, Average Total Intensity [4] | Cell Number, % of positive control [5] | Cell Number, Average Total Cell Number [5] | Sox17 Expression, % of positive control [5] | Sox17 Expression, Average Total Intensity [5] | also measured
1 | CN1CCC(=O)NCCCNc2ncccc2-c2ncnc(n2)Nc2cccc(c2)C1 [Compound 39, 9-Methyl-2,3,4,5,7,8,9,10-octahydro-16H-17,21-(azeno)-11,15-(metheno)pyrido[3,2-g][1,3,5,9,13,17]hexaazacyclotricosin-6(1H)-one] | 37.64 % of positive control | 2879 | 3.24 % of positive control | 3.61E+06 | 75.00 % of positive control | 5738 | 19.24 % of positive control | 2.14E+07 | 33.08 % of positive control | 2531 | 2.53 % of positive control | 2.82E+06 | 39.07 % of positive control | 2989 | −0.02 % of positive control | −1.78E+04 | 9.59 % of positive control | 734 | −3.53 % of positive control | −3.93E+06 | Cell Number, % of positive control [6]: 2.75 % of positive control; Cell Number, Average Total Cell Number [6]: 211; Sox17 Expression, % of positive control [6]: −4.08 % of positive control; Sox17 Expression, Average Total Intensity [6]: −4.54E+06; Cell Number, % of positive control [7]: 6.81 % of positive control; Cell Number, Average Total Cell Number [7]: 521; Sox17 Expression, % of positive control [7]: −4.01 % of positive control; Sox17 Expression, Average Total Intensity [7]: −4.46E+06; Cell Number, % of positive control (10 ng/ml AA + compound + Wnt3a): 6.78 % of positive control; Cell Number, Average Total Cell Number (10 ng/ml AA + compound + Wnt3a): 518; Sox17 Expression, % of positive control (10 ng/ml AA + compound + Wnt3a): −2.13 % of positive control; Sox17 Expression, Average Total Intensity (10 ng/ml AA + compound + Wnt3a): −2.37E+06
2 | CCN1CCCc2cccc(c2)-c2ncnc(n2)Nc2cccc(c2)CCNC(=O)C1 [Compound 29, 18-Ethyl-3,5,7,15,18,28-hexaazatetracyclo[20.3.1.1˜2,6˜0.1˜8,12˜]octacosa-1(26), 2(28), 3,5,8(27), 9,11,22,24-nonaen-16-one] | 76.26 % of positive control | 4676 | 21.11 % of positive control | 2.41E+07 | 44.63 % of positive control | 2737 | 21.10 % of positive control | 2.41E+07 | 37.23 % of positive control | 2283 | 4.88 % of positive control | 5.59E+06 | 64.65 % of positive control | 3964 | 19.89 % of positive control | 2.27E+07 | 28.31 % of positive control | 1736 | 1.73 % of positive control | 1.98E+06 | Cell Number, % of positive control [6]: 5.96 % of positive control; Cell Number, Average Total Cell Number [6]: 365; Sox17 Expression, % of positive control [6]: −4.25 % of positive control; Sox17 Expression, Average Total Intensity [6]: −4.86E+06; Cell Number, % of positive control [7]: 34.89 % of positive control; Cell Number, Average Total Cell Number [7]: 2139; Sox17 Expression, % of positive control [7]: 6.10 % of positive control; Sox17 Expression, Average Total Intensity [7]: 6.98E+06; Cell Number, % of positive control (10 ng/ml AA + compound + Wnt3a): 34.09 % of positive control; Cell Number, Average Total Cell Number (10 ng/ml AA + compound + Wnt3a): 2090; Sox17 Expression, % of positive control (10 ng/ml AA + compound + Wnt3a): 4.28 % of positive control; Sox17 Expression, Average Total Intensity (10 ng/ml AA + compound + Wnt3a): 4.89E+06
3 | O=C1NCCCc2cncc(c2)-c2ncnc(n2)Nc2cc(Cl)cc(c2)CN2CCCC1C2 (stereo not drawn) [Compound 37, 10-Chloro-3,5,7,14,20,26,31-heptaazapentacyclo[22.3.1.1˜2,6˜0.1˜8,12˜0.1˜14,18˜]hentriaconta-1(28), 2(31), 3,5,8(30), 9,11,24,26-nonaen-19-one] | 59.34 % of positive control | 4540 | 0.83 % of positive control | 9.23E+05 | 74.65 % of positive control | 5711 | 10.82 % of positive control | 1.21E+07 | 62.31 % of positive control | 4767 | −0.46 % of positive control | −5.16E+05 | 55.20 % of positive control | 4223 | −0.55 % of positive control | −6.15E+05 | 45.77 % of positive control | 3501 | 0.50 % of positive control | 5.60E+05 | Cell Number, % of positive control [6]: 18.70 % of positive control; Cell Number, Average Total Cell Number [6]: 1431; Sox17 Expression, % of positive control [6]: −2.47 % of positive control; Sox17 Expression, Average Total Intensity [6]: −2.75E+06; Cell Number, % of positive control [7]: 51.37 % of positive control; Cell Number, Average Total Cell Number [7]: 3930; Sox17 Expression, % of positive control [7]: −1.69 % of positive control; Sox17 Expression, Average Total Intensity [7]: −1.88E+06; Cell Number, % of positive control (10 ng/ml AA + compound + Wnt3a): 10.34 % of positive control; Cell Number, Average Total Cell Number (10 ng/ml AA + compound + Wnt3a): 791; Sox17 Expression, % of positive control (10 ng/ml AA + compound + Wnt3a): −2.68 % of positive control; Sox17 Expression, Average Total Intensity (10 ng/ml AA + compound + Wnt3a): −2.99E+06
